Measurements published in patent US20220395553A1, “CXCR4 ANTAGONIST PEPTIDES” (COHBAR, INC., priority 2019, published 2022).
Square brackets hold non-standard residues; d marks the D form. Peptide text beside a SMILES is read from it.

Assays:
[1] = system: Jurkat cells; assay: CXCL12 mediated cell migration, Jurkat cells; type: cell-based, human; conditions: 1.1 μM test article, 100 ng/ml CXCL12, 1 hour
Experimental: The assay was performed following a protocol similar to that described by Peng, et al., Mol Cancer Ther., 14480-90 (2015), incorporated herein by reference. Peptides were initially prepared as 1 mM stock in H2O and tested at a final concentration of 1.1 μM. […] Jurkat cells were resuspended in serum free media (RPMI+GlutaMax; Gibco/Thermo Fisher Scientific; Gaithersburg, Md.) containing 0.5% bovine serum albumin at density of 5×10^6 cells/ml. […] Cells (250,000 cells in 50 μl) supplemented with the appropriate treatments were seeded on to the upper chamber of a 96-well 5 μm HTS Transwell filter insert (Corning/Costar; Tewksbury, Mass.). […] Filter inserts were immediately placed on top of 96-well receiver trays and placed at 37° C. in a humidified atmosphere of 5% CO2/95% air for 1 hour. Following the 1 hour incubation period the filter inserts were carefully removed and the migration of cells across the filter into the bottom chamber (receiver wells) was determined by measuring ATP levels using Cell TiterGlo 2.0, according to manufacturer's instructions (Promega; Madison, Wis.); luminescence was measured using a Cytation 3 plate reader (BioTek; Winooski, Vt.).

[2] = system: CXCR4/CXCL12 induced p-MEK; assay: CXCR4/CXCL12 induced p-MEK in Jurkat cells (ELISA); type: cell-based, human; conditions: 5 nM CXCL12, 5 min
Procedure, shortened: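 Jurkat cells in RPMI+GlutaMax containing 10% FBS and 1% penicillin/streptomycin, fresh or conditioned, were resuspended at 2×10^6 cells/ml and […] aliquots placed in tubes. After a 5 min stimulation they were pelleted, rinsed with HBSS and lysed with PMSF and protease/phosphatase inhibitors. Phospho-MEK1 (Ser217/221) was quantified by sandwich ELISA with absorbance read at 450 nm.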

[3] = target: T1, human CXCR4 (Homo sapiens, UniProt P61073); assay: IC50 for inhibition of CXCR4 activation, β-Arrestin recruitment (Example 22); type: cell-based; parameters: host or cells: C2C12 (mouse myoblast) CXCR4 β-Arrestin PathHunter cell line
Procedure, shortened: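 C2C12 cells co-expressing ProLink-tagged human CXCR4 and Enzyme Acceptor-tagged β-arrestin (PathHunter). Peptides tested in 10-point, 3-fold dilutions from 1 μM (1 μM–0.05 nM). Recruitment read by chemiluminescent enzyme-fragment complementation after 90 min incubation.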

[4] = target: T1, human CXCR4; assay: CXCR4/CXCL12 binding, HTRF format, single concentration (Example 23); parameters: host or cells: HEK293 (Tag-lite CXCR4 cells, frozen aliquots, transient expression); conditions: 15 nM CXCR4R fluorescent probe, 3 hours, HEK293 Tag-lite CXCR4 cells
Procedure, shortened: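 Tag-lite CXCR4 cells were exposed to peptide at 400 nM final with 15 nM (EC80) fluorescent CXCR4 probe for 3 h at room temperature. HTRF was read, and the 665/620 nm ratio ×10,000 measured probe bound to terbium-labelled receptor.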

[5] = target: T1, human CXCR4; assay: IC50 for CXCR4/CXCL12 ligand binding, HTRF format (Example 24); parameters: host or cells: HEK293 (Tag-lite CXCR4 cells, frozen aliquots, transient expression)
Experimental: Peptides were initially prepared as 1 mM stock in H2O. […] Following the manufacture's protocol, a frozen aliquot of Tag-lite CXCR4 cells was thawed and immediately seeded onto 384-well plates in TLB. […] The plates were covered in aluminum foil and left at room temperature for 3 hours. Following the 3 hour incubation period, the plates were removed from the incubator and fluorescence measured using a Cytation 1 plate reader using a HTRF filter cube ([…]; BioTek; Winooski, Vt.).

T1 sequence (P61073 whole entry, the tested form may be a part): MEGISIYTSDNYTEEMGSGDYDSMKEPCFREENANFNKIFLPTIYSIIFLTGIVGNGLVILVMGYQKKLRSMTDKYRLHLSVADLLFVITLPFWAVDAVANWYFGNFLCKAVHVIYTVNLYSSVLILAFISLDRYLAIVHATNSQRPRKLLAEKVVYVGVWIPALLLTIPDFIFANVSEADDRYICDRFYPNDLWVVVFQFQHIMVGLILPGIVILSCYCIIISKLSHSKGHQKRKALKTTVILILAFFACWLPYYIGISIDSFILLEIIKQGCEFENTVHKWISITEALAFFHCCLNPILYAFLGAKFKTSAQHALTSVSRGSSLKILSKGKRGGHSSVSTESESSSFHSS

Row | Compound | Percent Inhibition of CXCL12 Mediated Migration (1.1 μM Test Article) [1] | Percent Inhibition of CXCR4/CXCL12 Induced p-MEK (100 nM Test Article) [2] | Percent Inhibition of CXCR4/CXCL12 Induced p-MEK (1 μM Test Article) [2] | IC50 [3] | Percent Inhibition of CXCR4/CXCL12 Binding (400 nM peptide) [4] | IC50 [5]
1 | CC(C)C[C@H](NC(=O)[C@H](CO)NC(=O)[C@H](CO)NC(=O)[C@H](CCCNC(=N)N)NC(=O)[C@@H](NC(=O)[C@H](CO)NC(=O)[C@H](Cc1c[nH]cn1)NC(=O)[C@H](Cc1c[nH]cn1)NC(=O)[C@H](Cc1ccccc1)NC(=O)[C@H](CCCNC(=N)N)NC(=O)[C@H](CCC(=O)O)NC(=O)[C@@H](N)CC(C)C)C(C)C)C(=O)N[C@@H](CCCNC(=N)N)C(=O)N1CCC[C@H]1C(=O)N[C@@H](Cc1ccc(O)cc1)C(=O)N[C@H](C(=O)N[C@@H](CCCCN)C(=O)O)[C@@H](C)O [compound 54] (H-LERFHHSVRSSLRPYTK-OH; N-terminus and C-terminus assumed) | 54% | 46% | 92% | 3 nM | 79% | 8 nM
2 | CC(C)C[C@H](NC(=O)[C@H](CO)NC(=O)[C@H](CO)NC(=O)[C@H](CCCNC(=N)N)NC(=O)[C@@H](NC(=O)[C@H](CO)NC(=O)[C@H](Cc1c[nH]cn1)NC(=O)[C@H](Cc1c[nH]cn1)NC(=O)[C@H](Cc1ccc(O)cc1)NC(=O)[C@H](CCCNC(=N)N)NC(=O)[C@H](CCC(=O)O)NC(=O)[C@@H](N)CC(C)C)C(C)C)C(=O)N[C@@H](CCCNC(=N)N)C(=O)N1CCC[C@H]1C(=O)N[C@@H](Cc1ccccc1)C(=O)N[C@H](C(=O)N[C@@H](CCCCN)C(=O)O)[C@@H](C)O [compound 60] (H-LERYHHSVRSSLRPFTK-OH; N-terminus and C-terminus assumed) | 33% | 34% | 82% | 4 nM | 60% | 17 nM
3 | CC(C)C[C@H](NC(=O)[C@H](CO)NC(=O)[C@H](CO)NC(=O)[C@H](CCCNC(=N)N)NC(=O)[C@@H](NC(=O)[C@H](CO)NC(=O)[C@H](Cc1c[nH]cn1)NC(=O)[C@H](Cc1c[nH]cn1)NC(=O)[C@H](Cc1ccc(O)cc1)NC(=O)[C@H](CCCNC(=N)N)NC(=O)[C@H](CCC(=O)O)NC(=O)[C@@H](N)CC(C)C)C(C)C)C(=O)N[C@@H](CCCNC(=N)N)C(=O)N1CCC[C@H]1C(=O)N[C@@H](Cc1ccc(O)cc1)C(=O)N[C@@H](CO)C(=O)N[C@@H](CCCCN)C(=O)O [compound 75] (H-LERYHHSVRSSLRPYSK-OH; N-terminus and C-terminus assumed) | 81% | 60% | 100% | 4 nM | 81% | 11 nM
4 | CC(C)C[C@H](NC(=O)[C@H](CO)NC(=O)[C@H](CO)NC(=O)[C@H](CCCNC(=N)N)NC(=O)[C@@H](NC(=O)[C@H](CO)NC(=O)[C@H](Cc1c[nH]cn1)NC(=O)[C@H](Cc1c[nH]cn1)NC(=O)[C@H](Cc1ccc(O)cc1)NC(=O)[C@H](CCCNC(=N)N)NC(=O)[C@H](CCC(=O)O)NC(=O)[C@@H](N)CC(C)C)C(C)C)C(=O)N[C@@H](CCCNC(=N)N)C(=O)NCC(=O)N[C@@H](Cc1ccc(O)cc1)C(=O)N[C@H](C(=O)N[C@@H](CCCCN)C(=O)O)[C@@H](C)O [compound 80] (H-LERYHHSVRSSLRGYTK-OH; N-terminus and C-terminus assumed) | 71% | 52% | 96% | 4 nM | 88% | 6 nM
5 | CC(C)C[C@H](NC(=O)[C@H](CO)NC(=O)[C@H](CO)NC(=O)[C@H](CCCNC(=N)N)NC(=O)[C@@H](C)NC(=O)[C@H](CO)NC(=O)[C@H](Cc1c[nH]cn1)NC(=O)[C@H](Cc1c[nH]cn1)NC(=O)[C@H](Cc1ccc(O)cc1)NC(=O)[C@H](CCCNC(=N)N)NC(=O)[C@H](CCC(=O)O)NC(=O)[C@@H](N)CC(C)C)C(=O)N[C@@H](CCCNC(=N)N)C(=O)N1CCC[C@H]1C(=O)N[C@@H](Cc1ccc(O)cc1)C(=O)N[C@H](C(=O)N[C@@H](CCCCN)C(N)=O)[C@@H](C)O [compound 57] (H-LERYHHS[dA]RSSLRPYTK-NH2; N-terminus assumed) | 30% | 10% | 72% | 33 nM | 77% | 7 nM
6 | CC(C)C[C@H](NC(=O)[C@H](CO)NC(=O)[C@H](CO)NC(=O)[C@H](CCCNC(=N)N)NC(=O)[C@@H](NC(=O)[C@H](CO)NC(=O)[C@H](Cc1c[nH]cn1)NC(=O)[C@H](Cc1c[nH]cn1)NC(=O)[C@H](Cc1ccc(O)cc1)NC(=O)[C@H](CCCNC(=N)N)NC(=O)[C@H](CCC(=O)O)NC(=O)[C@@H](N)CC(C)C)C(C)C)C(=O)N[C@@H](CCCNC(=N)N)C(=O)N1CCC[C@H]1C(=O)N[C@@H](Cc1ccc(O)cc1)C(=O)N[C@H](C(=O)N[C@@H](CCCCN)C(N)=O)[C@@H](C)O [compound 56] (H-LERYHHSVRSSLRPYTK-NH2; N-terminus assumed) | 83% | 69% | 98% | 11 nM | 79% | 5 nM
7 | CC(C)C[C@H](NC(=O)[C@H](CO)NC(=O)[C@H](CO)NC(=O)[C@H](CCCNC(=N)N)NC(=O)[C@@H](NC(=O)[C@H](CO)NC(=O)[C@H](Cc1c[nH]cn1)NC(=O)[C@H](Cc1c[nH]cn1)NC(=O)[C@H](Cc1ccc(O)cc1)NC(=O)[C@H](CCCNC(=N)N)NC(=O)[C@H](CCCNC(=N)N)NC(=O)[C@@H](N)CC(C)C)C(C)C)C(=O)N[C@@H](CCCNC(=N)N)C(=O)N1CCC[C@H]1C(=O)N[C@@H](Cc1ccc(O)cc1)C(=O)N[C@H](C(=O)N[C@@H](CCCCN)C(N)=O)[C@@H](C)O [compound 16] (H-LRRYHHSVRSSLRPYTK-NH2; N-terminus assumed) | 21% | 74% | 100% | 8 nM | −2% | 573 nM
